Common to all, as to assay: NCI tumour cell line growth inhibition, 48 h
For assay [1], the system named is DLD-1 colon.
Assay [2] concerns LXFL 529 NSCLC.
Assay [3] relates to RXF-631 renal.
Assay [4] relates to SNB-78 CNS.
For assay [5], the system named is DMS 273 small cell lung.
The subject of assay [6] is P388 leukemia.
Assay [7] has as its system P388/ADR leukemia.
The subject of assay [8] is SN12K1 renal.

The record followed here is PubChem BioAssay (NCI).

Structures are written as SMILES.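 96-well plates; 48 h exposure; 5 concentrations. Endpoints by linear interpolation between flanking doses. Not reached: highest tested concentration assigned. The concentration for full growth arrest is given as TGI.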

Take `COc1cc(C[S+]2CCCC2)c(SC)cc1C[S+]1CCCC1`: the TGI in assay [1], in assay [2], in assay [3] and in assay [4] was over 100 µM in each case.
As for `Cc1cc(=O)[nH]c(NN2C(Cl)C(=O)C2c2cccc(O)c2)n1` (centres undefined), the TGI in assay [5], in assay [2] and in assay [4] was over 100 µM in each case.
Take `O=NN(CCCl)C(=O)NC1CCSc2ccccc21` (centres undefined): the TGI is over 100 µM in assay [1]; over 100 µM in assay [5]; 82.6 µM in assay [6]; over 100 µM in assay [7]; over 100 µM in assay [8]; over 100 µM in assay [4].
For the compound `Cc1ccc(S(=O)(=O)Oc2cc(-c3ccccc3)nc3ccccc23)cc1`, the TGI is over 46.8 µM in assay [1]; over 28 µM in assay [5]; 3.12 µM in assay [6]; 12.6 µM in assay [7]; 4.25 µM in assay [8]; 50.6 µM in assay [4].
